Measured values: patent publication US20240238274A1, “INHIBITORS OF UBIQUITIN SPECIFIC PEPTIDASE 22 (USP22) AND USES THEREOF FOR TREATING DISEASE AND DISORDERS” (Northwestern University, priority 2021, published 2024)

Legend:
USP22 = biological target: T1, USP22 (Mus musculus, UniProt Q5DU02); assay: Biological screening of the 25 chemicals, FOXP3 MFI reduction as readout; type: cell-based; settings: biological validation of the 25 chemicals
T1 construct: endogenous in cells; probably murine iTreg
T1 sequence (Q5DU02 1-525): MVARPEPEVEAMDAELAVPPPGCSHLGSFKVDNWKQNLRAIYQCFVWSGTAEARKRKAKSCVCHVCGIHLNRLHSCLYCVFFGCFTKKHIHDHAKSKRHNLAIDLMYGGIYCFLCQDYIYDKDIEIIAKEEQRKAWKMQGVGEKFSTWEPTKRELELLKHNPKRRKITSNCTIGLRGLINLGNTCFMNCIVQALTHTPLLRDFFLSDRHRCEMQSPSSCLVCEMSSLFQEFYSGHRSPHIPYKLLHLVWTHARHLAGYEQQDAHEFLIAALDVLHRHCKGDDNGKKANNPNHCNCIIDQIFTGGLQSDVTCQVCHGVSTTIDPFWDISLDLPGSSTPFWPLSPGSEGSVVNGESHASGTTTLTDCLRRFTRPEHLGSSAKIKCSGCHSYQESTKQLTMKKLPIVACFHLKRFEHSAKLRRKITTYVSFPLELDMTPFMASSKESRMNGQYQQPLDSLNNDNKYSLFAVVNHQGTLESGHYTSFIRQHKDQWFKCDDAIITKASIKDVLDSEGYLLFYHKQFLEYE
T1 sequence (A2AWT3 1-347 partner): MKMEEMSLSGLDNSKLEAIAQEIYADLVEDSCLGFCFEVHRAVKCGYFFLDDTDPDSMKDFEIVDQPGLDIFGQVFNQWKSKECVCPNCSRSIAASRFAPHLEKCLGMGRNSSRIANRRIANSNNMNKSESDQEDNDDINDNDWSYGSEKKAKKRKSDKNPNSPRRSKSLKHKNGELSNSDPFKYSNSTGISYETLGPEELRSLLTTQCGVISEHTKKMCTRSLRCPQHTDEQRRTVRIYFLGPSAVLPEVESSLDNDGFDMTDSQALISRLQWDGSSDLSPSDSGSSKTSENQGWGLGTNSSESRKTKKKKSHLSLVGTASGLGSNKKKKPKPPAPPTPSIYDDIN
T1 sequence (Q9JIX0 1-101 partner): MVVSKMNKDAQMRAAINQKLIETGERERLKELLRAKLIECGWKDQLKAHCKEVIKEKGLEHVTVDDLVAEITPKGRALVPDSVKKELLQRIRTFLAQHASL
Text: We then used both Lipinski's Rule and Veber's Rule to filter through the Specs database and found a total of 240K compounds binding to the catalytic pocket of our Usp22 model. We then filtered the top 100 compounds ranked by docking affinity by MD and MM/PBSA methods and were left with 25 compounds (Table 1). This limited number of compounds allowed us for further biological screening. As USP22 suppression leads to dramatic reduction in FOXP3 expression levels, we utilized FOXP3 MFI reduction as a readout for the biological validation of USP22 inhibitory efficacy by each of the 25 chemicals. […] The compound S02, structure shown in FIG. 6A, bound stably in the USP22 catalytic domain pocket shown by the RMSD trajectory (FIG. 14E) with strong binding energies to our USP22-md model (FIG. 14F). […] Therefore, future generations of Usp22 inhibitors should take into considerations not only the hydrophobic residues, but also the interaction between the inhibitor and the charged and polar residues on the surface of the binding pocket.

Foxp3 in iTreg cells = assay: In vitro dose response and mechanism study in WT, Usp22-null and Usp21-null Treg cells; type: cell-based, murine
Procedure: (§1) FIG. 15: Usp22i-S02 halts Usp22-mediated Foxp3 deubiquitination. A, Graphical representation of Foxp3 MFI change in WT versus 22KO iTreg cells treated with various doses of Usp22i-S02 (n=3). B, Representative histogram of Foxp3 MFI level in iTreg cells as Usp22 inhibitor concentration increases from 0-20 μg/mL. C, Cell survival of iTreg cells treated with various doses of Usp22i-S02 (n=3). D, FOXP3 and USP22 protein level in WT and 22KO mice treated with 10 μg/mL Usp22i-S02. E-F, Graphical and representative data of Foxp3 MFI of human Treg cells treated with various doses of Usp22i-S02 (n=3). G, Graphical representation of Foxp3 MFI in WT, Usp21-null, and Usp22-null Treg cells treated with Usp22i-S02 at 10 μg/mL (n=3). H, FOXP3 and USP22 protein degradation of cycloheximide (10 μg/mL) treated iTreg cells with or without the addition of 10 μg/mL of Usp22i-S02. I-J, Endogenous DUB assay IP in iTreg cells of USP22 with FOXP3 under increasing concentrations of Usp22i-S02. K, Foxp3 mRNA level in iTreg cells as Usp22 inhibitor concentration increases from 0-20 μg/mL (n=3). L, FOXP3 and USP22 level in WT iTreg cells with or without 20 μg/mL Usp22 inhibitor treated with 20 μM MG132. M, Graphical representation of the percentage of decrease of Foxp3 MFI in either WT or Usp22-null nTreg cells placed in low glucose conditions with or without the addition of 10 μg/mL of Usp22i-S02 (n=7-8). N, Graphical representation of the percentage of decrease of Foxp3 MFI in WT nTreg cells placed in hypoxic or low amino acid conditions with or without the addition of 10 μg/mL of Usp22i-S02 (n=3-5). G, Two-tailed unpaired t-test comparing within groups was performed to determine statistical significance. K, One-way ANOVA with Dunnet's multiple comparisons between rows relative to control was performed to determine statistical significance. M-N, Two-way ANOVA with Sidak's multiple comparisons between rows was performed to determine statistical significance. All data are presented as mean±stdev. NS, not significant. *P<0.05, **P<0.01, ***P<0.001, ****P<0.0001.
After initial screening, we ran an in vitro dose response study on compound S02, now dubbed Usp22i-S02, in both WT and Usp22-null iTreg cells (FIG. 15A-C).
All nTreg and iTreg cells were plated as described above DMOG (Sigma Catalog #D3695) was administered to the cells in relevant experiments at 1 mM for 24 hours. Oligomycin (Sigma Catalog #75351) was administered at 1 μM to the media of the cells in relevant experiments for 24 hours. Torin 1 (Millipore Catalog #475991) was administered to the relevant cells at 250 nM for 24 hours. FOXP3 protein level was assessed via flow cytometry following […] of treatment of inhibitors described above. In vitro administration of Usp22i-S02 was at 10 ug/mL.

[1] = test system: Foxp3 in human Treg cells; assay: Foxp3 MFI of human Treg cells treated with Usp22i-S02; type: cell-based; settings: low doses
Procedure: as §1, with “N, Graphical representation of the percentage of decrease of Foxp3 MFI in WT nTreg cells placed in hypoxic or low amino acid conditions with or without the addition of 10 μg/mL of Usp22i-S02 (n=3-5). G, Two-tailed unpaired t-test comparing within groups was performed to determine statistical significance. K, One-way ANOVA with Dunnet's multiple comparisons between rows relative to control was performed to determine statistical significance. M-N, Two-way ANOVA with Sidak's multiple comparisons between rows was performed to determine statistical significance. All data are presented as mean±stdev. NS, not significant. *P<0.05, **P<0.01, ***P<0.001, ****P<0.0001.” left out

N#Cc1c2c(c(Nc3ccccc3)n3c1nc1ccccc13)CCCC2 [Chemical S02, 11-anilino-7,8,9,10-tetrahydro-benzimidazo [1,2-b] isoquinoline-6-carbonitrile]
efficacy in downregulating FOXP3 expression (USP22): strong efficacy in downregulating FOXP3 expression | viability of iTreg cells (Foxp3 in iTreg cells; 10 μg/mL): little effect on viability | effect on Foxp3 in iTreg cells lacking Usp21 (Foxp3 in iTreg cells; Usp21-null iTreg cells, 10 μg/mL): full effect | Foxp3 MFI and protein level (Foxp3 in iTreg cells; WT iTreg cells, 10 μg/mL): decreases in Foxp3 MFI and protein level comparable to Usp22-null iTreg cells | Foxp3 stability under glucose starvation (Foxp3 in iTreg cells; WT nTreg cells, low glucose, 10 μg/mL): significantly diminished Foxp3 stability | FOXP3 degradation (Foxp3 in iTreg cells; cycloheximide (CHX) treated iTreg cells): enhanced FOXP3 degradation | Foxp3 transcription (Foxp3 in iTreg cells; iTreg cells, Foxp3 mRNA, 0-20 μg/mL): decreased Foxp3 transcription | FOXP3 ubiquitination (Foxp3 in iTreg cells; iTreg cells, endogenous DUB assay IP): increased FOXP3 ubiquitination | FOXP3 levels in Treg cells lacking Usp22 (Foxp3 in iTreg cells; murine Treg cells lacking Usp22, in vivo and in vitro): minimal effect on FOXP3 levels | Foxp3 MFI [1]: significantly decreased Foxp3 MFI | cell viability [1]: little effect to cell viability
